According to patent publication US20230191357A1, “SYSTEM AND METHOD FOR ENHANCING THE REACTION POTENTIAL OF PRODUCTS GENERATED FROM IONIZATION, PHOTON-ENHANCED THERMIONIC EMISSION, MULTI PHOTON ABSORPTION, PHOTOOXIDATION, PHOTOCATALYTIC, AND PHOTOCHEMICAL REACTIONS WITH OXIDIZING AGENTS” (Bis Science LLC, priority 2021, published 2023):
Several values for one entry are separate records, joined by “and”; a condition that tells them apart may be missing. Identical values can stand only once.

Key:
Format in all cases: cell-based
E. coli ATCC 11229 = assay: Carrier test of residual antimicrobial effect, 4 weeks post photon exposure; conditions: contact time 10 Minutes, 4 weeks post exposure to radiation
[1] = tested on: Staphylococcus aureus ATCC 6538; assay: Hydrogen peroxide exposed or not exposed to photons applied to inoculated target microbes; conditions: contact time 5 Minutes; for CFU/ml: single replicates
Experimental: The test substances were hydrogen peroxide at 1 ppm and at 0.3%, which were exposed or not exposed to photons of 0.01 nm through 845 nm and applied to target of microbes, which included a carrier for the inoculated target microbes such as agar with a viable bacteria concentration of Staphylococcus aureus ATCC 6538. The control for this test was a similar inoculated plate and it was treated in the same manor but there was no application of photons to the oxidizing agent.

[2] = tested on: viable cells (microbial counts); assay: Independent lab testing of the HVAC antimicrobial system utilizing Photon Augmented Oxidizing Agents (coupons, ambient air); conditions: 1 part per million, 5 minute contact time with the ambient air
Source text: All test samples were compared against the Control provided. (Independent lab testing of the HVAC antimicrobial system utilizing Photon Augmented Oxidizing Agents).

OO [Control Substance, hydrogen peroxide]
Average Log10 Reduction Compared to Controls (E. coli ATCC 11229): 0.11 Log10 | Average Percent Reduction Compared to Controls (E. coli ATCC 11229): 23.08% | CFU/Carrier (E. coli ATCC 11229): 3.00E+04 CFU/Carrier | Average Percent Reduction Compared to Controls (E. coli ATCC 11229; listed as control substance): 23.08%

OO [1 PPM No photon emission, hydrogen peroxide]
Average CFU/ml [1]: 4.05E+06 CFU/ml | Average Log10 Reduction Compared to Controls [1]: No Reduction | Average Percent Reduction Compared to Controls [1]: No Reduction | CFU/ml [1]: 4.10E+06 CFU/ml

OO [standard hydrogen peroxide, hydrogen peroxide]
microbial reduction [2]: little or no microbial reduction

OO [0.3% No photon emission, hydrogen peroxide]
Average CFU/ml [1]: 4.05E+06 CFU/ml | Average Log10 Reduction Compared to Controls [1]: No Reduction | Average Percent Reduction Compared to Controls [1]: No Reduction | CFU/ml [1]: 4.10E+06 CFU/ml and 4.00E+06 CFU/ml
